Laboratory results as given in US20250120975A1, “INTEGRIN INHIBITORS FOR TREATMENT OF PRIMARY SCLEROSING CHOLANGITIS” (Pliant Therapeutics, Inc., priority 2023, published 2025).
“Also recorded” adds a separate entry of the source. Where two headings read alike, the source gives them in different places.

Key:
[1] = tested on: subjects with PSC and suspected liver fibrosis; assay: Phase 2a INTEGRIS-PSC: Enhanced Liver Fibrosis (ELF) score and components; format: in vivo, human
Protocol: The Enhanced Liver Fibrosis (ELF) score is a set of markers for extracellular matrix (ECM) activity. Three serum markers are measured, tissue inhibitor of metalloproteinases 1 (TIMP-1), amino-terminal propeptide of type III procollagen (PIIINP) and hyaluronic acid (HA). The measurements are combined in an algorithm to provide a score that correlates well with the degree of liver fibrosis (Sharma, C. et al., Journal of Gastroenterology and Hepatology, 36:1788-1802(2021), incorporated by reference herein in its entirety). A change in ELF score greater than or equal to 0.19 is indicative of clinical progression within two years (Muir A. J. et al., Hepatology, 2019 February; 69 (2): 684-698, incorporated by reference herein in its entirety). An ELF greater than or equal to 7.7 is considered moderate to severe fibrosis (Vesterhus M. et al., Hepatology, 2015 July; 62(1):188-97; incorporated by reference herein in its entirety).
In Parts 1 and 2, plasma, serum, and urine biomarker samples were obtained at predetermined times as indicated in the Schedule of Events (see Table B-4). In Part 3, plasma and serum biomarker samples were obtained at predetermined times as indicated in the Schedule of Events (see Table B-5 and Table B-6). These samples were used to measure specific proteins, nucleotides and/or metabolites that were elevated in subjects with fibrosis, and/or pharmacodynamic markers that could change with inhibition of integrins αVβ6 and αVβ1. The samples were also used to perform exploratory investigations using metabolomic or proteomic methods for use in future studies in subjects with fibrotic diseases.
Absolute and relative changes from Baseline in liver fibrosis biomarkers (including PRO-C3 and ELF) and in ALP are presented in numerical and graphical forms by treatment and dose utilizing data from the timepoints specified in the Schedule of Events. Changes from Baseline to Week 12(Parts 1 and 2) and Week 24 (Part 3) in magnetic resonance (MR)-based liver imaging are also evaluated, as well as changes in PROs.

[2] = Effect of food on pharmacokinetics of the solution; format: in vivo
[3] = target: αVβ6 integrin (Homo sapiens, UniProt P06756+P18564); assay: Inhibition of αVβ6 integrin (IC50); format: binding; settings: read-out: 50% inhibitory concentration [IC50] αVβ6
Chain of αVβ6 integrin (P06756 31-1048): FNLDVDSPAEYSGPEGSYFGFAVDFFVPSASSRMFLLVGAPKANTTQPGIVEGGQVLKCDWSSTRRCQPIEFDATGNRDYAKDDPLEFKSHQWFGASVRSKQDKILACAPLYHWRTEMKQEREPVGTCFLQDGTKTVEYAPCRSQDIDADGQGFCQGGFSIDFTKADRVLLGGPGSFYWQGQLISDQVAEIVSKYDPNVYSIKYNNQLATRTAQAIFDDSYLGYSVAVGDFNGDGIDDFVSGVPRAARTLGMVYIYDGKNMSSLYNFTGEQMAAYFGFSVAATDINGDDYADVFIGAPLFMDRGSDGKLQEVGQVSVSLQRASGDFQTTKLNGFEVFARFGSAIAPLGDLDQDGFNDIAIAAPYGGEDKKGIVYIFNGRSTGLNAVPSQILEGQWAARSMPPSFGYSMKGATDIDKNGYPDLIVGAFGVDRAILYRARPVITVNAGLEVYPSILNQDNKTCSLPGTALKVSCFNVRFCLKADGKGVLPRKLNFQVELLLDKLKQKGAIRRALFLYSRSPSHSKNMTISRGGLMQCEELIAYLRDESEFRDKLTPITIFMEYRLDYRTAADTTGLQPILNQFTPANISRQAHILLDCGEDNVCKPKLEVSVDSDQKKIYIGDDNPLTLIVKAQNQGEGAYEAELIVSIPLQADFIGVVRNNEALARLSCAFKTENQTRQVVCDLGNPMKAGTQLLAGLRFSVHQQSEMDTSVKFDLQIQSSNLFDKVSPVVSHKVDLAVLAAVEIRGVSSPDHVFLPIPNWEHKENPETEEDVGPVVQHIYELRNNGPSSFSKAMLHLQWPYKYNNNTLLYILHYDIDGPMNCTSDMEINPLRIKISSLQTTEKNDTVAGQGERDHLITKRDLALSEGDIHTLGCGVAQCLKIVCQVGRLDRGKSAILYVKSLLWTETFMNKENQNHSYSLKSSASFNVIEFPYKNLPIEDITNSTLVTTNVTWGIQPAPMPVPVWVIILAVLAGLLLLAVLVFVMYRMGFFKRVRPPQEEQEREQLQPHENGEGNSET
Chain of αVβ6 integrin (P18564 22-788): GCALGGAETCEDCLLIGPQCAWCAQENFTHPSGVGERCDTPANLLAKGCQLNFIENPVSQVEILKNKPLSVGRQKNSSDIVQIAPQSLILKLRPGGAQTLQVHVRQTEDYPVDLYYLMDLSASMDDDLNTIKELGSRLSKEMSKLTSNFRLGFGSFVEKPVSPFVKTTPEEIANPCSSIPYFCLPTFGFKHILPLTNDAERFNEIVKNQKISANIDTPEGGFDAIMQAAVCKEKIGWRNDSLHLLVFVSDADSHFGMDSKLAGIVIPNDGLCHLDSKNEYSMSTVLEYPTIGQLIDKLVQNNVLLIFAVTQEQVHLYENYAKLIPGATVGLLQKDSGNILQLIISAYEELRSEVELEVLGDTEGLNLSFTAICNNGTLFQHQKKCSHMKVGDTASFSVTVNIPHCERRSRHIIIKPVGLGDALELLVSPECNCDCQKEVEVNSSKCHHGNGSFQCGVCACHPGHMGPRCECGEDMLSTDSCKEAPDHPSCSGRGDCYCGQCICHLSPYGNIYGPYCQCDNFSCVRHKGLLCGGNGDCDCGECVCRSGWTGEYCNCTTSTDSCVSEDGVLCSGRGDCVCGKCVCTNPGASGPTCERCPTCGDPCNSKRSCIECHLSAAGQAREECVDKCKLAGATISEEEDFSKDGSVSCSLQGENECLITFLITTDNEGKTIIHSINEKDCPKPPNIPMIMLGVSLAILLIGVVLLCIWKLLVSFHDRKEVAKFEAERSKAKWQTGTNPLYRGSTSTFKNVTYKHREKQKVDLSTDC

[4] = tested on: pSMAD3; assay: pSMAD3/SMAD3 MSD assay in mouse liver tissue; format: in vivo; settings: all doses (100, 300, 1000 mg/kg), 6 weeks
Text: The tissue source is BALBc.Mdr2-/−male mice that were 6 weeks old. The Mdr2(abcb4)−/− mouse model of sclerosing cholangitis has been previously described and is a model of spontaneously progressive hepatic fibrosis in mice with deletion of the biliary phospholipid flippase on fibrosis-susceptible background (Mdr2(abcb4)^−/−. BALB/c mouse). See N. Ikenaga, et al. (2015) Am J Pathol. 185 (2): 325-334, the entire contents of which are hereby incorporated by reference in their entirety.
(S)-4-((2-methoxyethyl)(4-(5,6,7,8-tetrahydro-1,8-naphthyridin-2-yl)butyl)amino)-2-(quinazolin-4-ylamino)butanoic acid (or PBS) was dosed once daily orally at 100 mg/kg, 300 mg/kg or 1000 mg/kg (see Table B-2) starting at 6 weeks after birth of the subject and continuing for 6 weeks. All animals were euthanized and necropsied at the end of week 12.
Mouse liver tissues were lysed with RIPA buffer with protease inhibitor cocktail. Total protein concentration was determined by Micro BCA kit. MSD GOLD™ 96 Sm Spot SA Plate was washed three times with 150 μL of PBST and 1 μg/mL of biotinylated anti-SMAD2/3 was added to the plate, 25 μL per well (60 Min incubation under agitation). The plate was washed as before and 12.5 μL of unknown samples plus 12.5 μL of PBST were added in duplicates. […] After wash, 150 μL of 1× read buffer was added and the plate was read using an MSD Sector Imager instrument.

[5] = tested on: subjects with PSC and suspected liver fibrosis
[6] = 40 mg (n = 24), 12 weeks, Example B-3
[7] = 40 mg once daily, Week 12, n = 24
[8] = 80 mg (n = 20), 12 weeks, Example B-3
[9] = 80 mg once daily, Week 12, n = 20
[10] = 160 mg (n = 20), 12 weeks, Example B-3
[11] = 160 mg once daily, Week 12, n = 20
[12] = 320 mg once daily, Week 12, n = 27
[13] = 320 mg, Example B-5 24-week data (Table D-7), n = 27
[14] = 40, 80, 160, and 320 mg pooled, Week 12, n = 91
[15] = All (n = 64), 12 weeks, Example B-3

For `COCCN(CCCCc1ccc2c(n1)NCCC2)CC[C@H](Nc1ncnc2ccccc12)C(=O)O` [Bexotegrast, (S)-4-((2-methoxyethyl)(4-(5,6,7,8-tetrahydro-1,8-naphthyridin-2-yl)butyl)amino)-2-(quinazolin-4-ylamino)butanoic acid], the “ELF score components TIMP-1, HA, PIIINP vs placebo” value ([1]; 160 mg, Week 12, Example B-3) was “achieved statistical significance”, the “ELF score, difference to placebo” value ([1]; 160 mg, Week 12, Example B-3) was “statistically significant difference” and the “reduction of the mean change in ELF score relative to placebo” value ([1]; 160 mg, Week 12, Example B-3) was 84%. For the same compound, the “ELF score relative to placebo” value ([1]; 320 mg, Week 12, Example B-4) was “reduction”, the “ELF score, overall population” value ([1]; 320 mg, Week 12 to Week 24, Example B-5) was “no increase; also recorded: stable ELF score” and the “ELF score, patients at high risk (baseline ELF >9.8)” value ([1]; 320 mg, Week 24, compared to an increase in the placebo group, Example B-5) was “reduction in ELF score”. For the same compound, the “ELF score components (TIMP-1, PIIINP, HA) compared to placebo” value ([1]; 40, 80, 160, 320 mg, Week 12, Example B-4) was “generally reduced”, the “ELF score relative to placebo” value ([1]; all doses (40, 80, 160 mg), Week 12, Example B-3) was “reduced” and the “ELF scores relative to placebo” value ([1]; all doses (40, 80, 160, 320 mg), Week 12, Example B-4) was “reduced”. The “decrease of AUCinf in the fed state relative to the fasted state” value [2] was 37%, the “decrease of Cmax in the fed state relative to the fasted state” value [2] was 52% and the IC50 [3] was 5.7 nM. For the same compound, the “pSMAD3 levels in liver” value [4] was “decreased”, the “COVID-19 TEAE, % of Participants Reporting” value (“COVID-19 TEAE, %” below) [5, 6] was “(8.3) %” and the “COVID-19 TEAE, n of Participants Reporting” value (“COVID-19 TEAE, n” for short) [5, 6] was 2 n. For the same compound, the “TEAE Leading to Death, n of Participants Reporting” value [5, 6] was 0 n, the “COVID-19 TEAE, %” value [5, 7] was “(8.3) %” and the “COVID-19 TEAE, n” value [5, 7] was 2. For the same compound, the “TEAE Leading to Death, n of Participants Reporting” value [5, 7] was 0, the “TEAE Leading to Withdrawal of bexotegrast, n of Participants Reporting” value ([5]; 40 mg once daily, Week 12, n = 24, COVID-19/dyspnoea/nasal congestion) was 1 and the “TEAE leading to withdrawal: AE Preferred Term” value ([5]; 40 mg treatment group, Example B-3) was “COVID-19/”. For the same compound, the “COVID-19 TEAE, %” value [5, 8] was “(5.0) %”, the “COVID-19 TEAE, n” value [5, 8] was 1 n and the “TEAE Leading to Death, n of Participants Reporting” value [5, 8] was 0 n. For the same compound, the “COVID-19 TEAE, %” value [5, 9] was “(5.0) %”, the “COVID-19 TEAE, n” value [5, 9] was 1 and the “TEAE Leading to Death, n of Participants Reporting” value [5, 9] was 0. For the same compound, the “COVID-19 TEAE, n” value [5, 10] was 0 n, the “TEAE Leading to Death, n of Participants Reporting” value [5, 10] was 0 n and the “COVID-19 TEAE, n” value [5, 11] was 0. For the same compound, the “TEAE Leading to Death, n of Participants Reporting” value [5, 11] was 0, the “COVID-19 TEAE, %” value [5, 12] was “(14.8) %” and the “COVID-19 TEAE, n” value [5, 12] was 4. The “TEAE Leading to Death, n of Participants Reporting” value [5, 12] was 0, the “TEAE Leading to Death, n of Participants Reporting After Week 12” value ([5]; 320 mg, After Week 12 (Table D-4), n = 27) was 0 and the “COVID-19 TEAE, %” value [5, 13] was 18.5%. For the same compound, the “COVID-19 TEAE, n” value [5, 13] was 5, the “TEAE Leading to Death, n of Participants Reporting” value ([5]; 320 mg, after 24 weeks (Table D-3), n = 27) was 0 and the “COVID-19 TEAE, %” value [5, 14] was “(7.7) %”. For the same compound, the “COVID-19 TEAE, n” value [5, 14] was 7, the “TEAE Leading to Death, n of Participants Reporting” value [5, 14] was 0 and the “COVID-19 TEAE, %” value [5, 15] was “(4.7) %”. For the same compound, the “COVID-19 TEAE, n” value [5, 15] was 3 n, the “TEAE Leading to Death, n of Participants Reporting” value [5, 15] was 0 n and the “Cholangitis (TEAE), n of Participants Reporting” value ([5]; human, in vivo, 12 weeks) was 2 n. The “Fatigue (TEAE), n of Participants Reporting” value ([5]; human, in vivo, 12 weeks) was 9 n, the “Frequent bowel movements (TEAE), % of Participants Reporting” value ([5]; human, in vivo, 12 weeks) was “(4.7) %” and the “Frequent bowel movements (TEAE), n of Participants Reporting” value ([5]; human, in vivo, 12 weeks) was 3 n. For the same compound, the “Headache (TEAE), n of Participants Reporting” value ([5]; human, in vivo, 12 weeks) was 6 n, the “Nausea (TEAE), n of Participants Reporting” value ([5]; human, in vivo, 12 weeks) was 6 n and the “Pruritus (TEAE), n of Participants Reporting” value ([5]; human, in vivo, 12 weeks) was 9 n. The “Serious TEAE Related to study drug, n of Participants Reporting” value ([5]; human, in vivo, 12 weeks) was 0 n, the “Serious TEAE, % of Participants Reporting” value ([5]; human, in vivo, 12 weeks) was “(3.1) %” and the “Serious TEAE, n of Participants Reporting” value ([5]; human, in vivo, 12 weeks) was 2 n. For the same compound, the “TEAE Leading to Early Termination from Study, % of Participants Reporting” value ([5]; human, in vivo, 12 weeks) was “(1.6)^1%”, the “TEAE Leading to Early Termination from Study, n of Participants Reporting” value ([5]; human, in vivo, 12 weeks) was 1 n and the “TEAE Leading to Interruption of Study Drug, % of Participants Reporting” value ([5]; human, in vivo, 12 weeks) was “(1.6)^1%”. For the same compound, the “TEAE Leading to Interruption of Study Drug, n of Participants Reporting” value ([5]; human, in vivo, 12 weeks) was 1 n, the “TEAE Leading to Withdrawal of Study Drug, % of Participants Reporting” value ([5]; human, in vivo, 12 weeks) was “(4.7)^2, 3, 4%” and the “TEAE Leading to Withdrawal of Study Drug, n of Participants Reporting” value ([5]; human, in vivo, 12 weeks) was 3 n. The “TEAE Related to study drug, % of Participants Reporting” value ([5]; human, in vivo, 12 weeks) was “(17.2) %”, the “TEAE Related to study drug, n of Participants Reporting” value ([5]; human, in vivo, 12 weeks) was 11 n and the “TEAE of CTCAE Grade 3 or Higher Related to study drug, n of Participants Reporting” value ([5]; human, in vivo, 12 weeks) was 0 n. For the same compound, the “TEAE of CTCAE Grade 3 or Higher, % of Participants Reporting” value ([5]; human, in vivo, 12 weeks) was “(6.3) %”, the “TEAE of CTCAE Grade 3 or Higher, n of Participants Reporting” value ([5]; human, in vivo, 12 weeks) was 4 n and the “TEAE, % of Participants Reporting” value ([5]; human, in vivo, 12 weeks) was “(64.1) %”. The “TEAE, n of Participants Reporting” value ([5]; human, in vivo, 12 weeks) was 41 n and the “AEs of pruritus and cholangitis relative to placebo” value ([5]; in vivo) was “occurred less frequently”.
